Test results as given in patent US10508086B2 (CANCER RESEARCH TECHNOLOGY LIMITED, priority 2014, dated 2019).

What was measured:
Human Full Length ARH3 = Human Full Length ARH3 (Homo sapiens (Human), UniProt Q9NX46); assay: ARH3 in vitro selectivity assay (TR-FRET); assay type: biochemical; conditions: read-out: ARH3 Biochem IC50
Procedure: ARH3 In vitro selectivity assays were conducted in a total volume of 15 ul in a standard 384 well format. 5 ul of Human Full Length ARH3 (Enzo Life Sciences: ALX-201-292), used at a final reaction concentration of 17.5 nM, was added to 5 ul of Ribosylated PARP substrate (also produced internally by Astra Zeneca) at final reaction concentration of 4.5 nM in assay buffer (50 mM Tris pH7.4, 0.1 mg/ml BSA, 3 mM EDTA, 0.4 mM EGTA, 1 mM DTT, 0.01% Tween 20, 50 mM KCl). The reaction was incubated at room temperature for 30 minutes and then 5 ul detection reagent was added. Detection Reagent consists of 42 nM MAb Anti-6HIS XL665 (CisBio: 61HISXLB) and 2.25 nM Streptavidin Europium Cryptate (CisBio: 610SAKLB), both at 3× working stock concentrations (final concentrations of 14 nM and 0.75 nM respectively), in a detection buffer of 50 mM Tris pH7.4, BSA at 0.1 mg/ml and KF at 100 mM. Following incubation at room temperature for 60 minutes in the dark, TR-FRET signal was measured at Ex 340 and Em 665 and Em 620. A ratio was calculated as Em665/EM620×104 for each well and used to calculate percent inhibition for test compounds.

[1] = target: Human High specific Activity PARP1 (Homo sapiens (Human), UniProt P09874); assay: PARP1 in vitro selectivity assay (histone PARylation, luminescence); assay type: biochemical; conditions: read-out: PARP1 Biochem IC50
Sequence of Human High specific Activity PARP1 (P09874 whole entry): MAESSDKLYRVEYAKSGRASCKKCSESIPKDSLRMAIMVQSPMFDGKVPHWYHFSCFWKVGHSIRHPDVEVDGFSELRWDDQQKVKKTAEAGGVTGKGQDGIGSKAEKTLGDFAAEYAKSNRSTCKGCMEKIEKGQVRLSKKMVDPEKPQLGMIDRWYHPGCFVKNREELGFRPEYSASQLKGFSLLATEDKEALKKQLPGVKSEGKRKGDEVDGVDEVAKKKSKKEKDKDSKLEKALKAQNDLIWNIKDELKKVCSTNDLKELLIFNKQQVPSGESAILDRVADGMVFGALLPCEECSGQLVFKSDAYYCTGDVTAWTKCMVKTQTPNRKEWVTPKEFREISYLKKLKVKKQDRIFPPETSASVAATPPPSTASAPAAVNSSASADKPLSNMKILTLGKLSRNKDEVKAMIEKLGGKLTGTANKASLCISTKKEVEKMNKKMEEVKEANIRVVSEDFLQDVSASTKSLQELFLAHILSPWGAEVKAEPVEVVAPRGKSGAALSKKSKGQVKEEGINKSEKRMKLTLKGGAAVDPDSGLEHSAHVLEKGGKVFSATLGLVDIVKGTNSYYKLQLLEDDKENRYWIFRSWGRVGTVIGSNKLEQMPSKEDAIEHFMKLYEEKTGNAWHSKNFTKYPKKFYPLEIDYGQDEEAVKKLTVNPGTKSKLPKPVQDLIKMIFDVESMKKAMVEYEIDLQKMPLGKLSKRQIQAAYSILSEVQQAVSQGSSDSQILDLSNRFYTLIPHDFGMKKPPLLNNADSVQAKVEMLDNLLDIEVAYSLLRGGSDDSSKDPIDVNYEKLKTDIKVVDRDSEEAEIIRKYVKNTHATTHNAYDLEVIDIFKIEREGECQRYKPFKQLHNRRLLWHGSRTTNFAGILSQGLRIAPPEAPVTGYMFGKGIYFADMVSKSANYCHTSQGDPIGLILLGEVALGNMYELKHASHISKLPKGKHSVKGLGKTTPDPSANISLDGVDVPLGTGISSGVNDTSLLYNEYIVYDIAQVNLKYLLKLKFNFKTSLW
Procedure: PARP1 In vitro selectivity assays were conducted as a 10 ul reaction volume in a NUNC Maxisorp 384-well assay plate pre-coated in-house with Histones. 5 ul of Human High specific Activity PARP1 (Trevigen: 4668-100-01) was used at a final reaction concentration of 0.02 units/ml in 1×PARP Buffer (Trevigen: 4671-096-02) with 5 ul of 1×PARP cocktail, which is a mixture of 10×PARP Cocktail (Trevigen: 4671-096-03), 10× Activate DNA (Trevigen: 4671-096-06) and 20×PARP Buffer (as above). The reaction was incubated at room temperature for 60 minutes to allow histones on the coated plate to become PARylated. The wells were then washed with PBS/0.1% Triton X100. PARP1 activity was then detected by measuring the extent of PARylation. Firstly, 10 ul of Streptavidin-HRP (Trevigen: 4800-30-06), diluted 1 in 250 in 1×PARG Assay Buffer (Trevigen: 4680-096-02), was added to each well and incubated at room temperature for 60 minutes. Secondly, following another wash with PBS/0.1% Triton X100, Peroxy Glow Reagents A and B (Trevigen: 4675-096-01 and 4675-096-02) were mixed in equal quantities immediately before use and 100 ul was added to each well. Luminescence signal was then measured immediately.

Human Full Length PARG = Human Full Length PARG (Homo sapiens (Human), UniProt Q86W56); assay: PARG in vitro enzyme assay (TR-FRET); assay type: biochemical; conditions: read-out: PARG_EC50_ENZYME
Sequence of Human Full Length PARG (Q86W56 whole entry): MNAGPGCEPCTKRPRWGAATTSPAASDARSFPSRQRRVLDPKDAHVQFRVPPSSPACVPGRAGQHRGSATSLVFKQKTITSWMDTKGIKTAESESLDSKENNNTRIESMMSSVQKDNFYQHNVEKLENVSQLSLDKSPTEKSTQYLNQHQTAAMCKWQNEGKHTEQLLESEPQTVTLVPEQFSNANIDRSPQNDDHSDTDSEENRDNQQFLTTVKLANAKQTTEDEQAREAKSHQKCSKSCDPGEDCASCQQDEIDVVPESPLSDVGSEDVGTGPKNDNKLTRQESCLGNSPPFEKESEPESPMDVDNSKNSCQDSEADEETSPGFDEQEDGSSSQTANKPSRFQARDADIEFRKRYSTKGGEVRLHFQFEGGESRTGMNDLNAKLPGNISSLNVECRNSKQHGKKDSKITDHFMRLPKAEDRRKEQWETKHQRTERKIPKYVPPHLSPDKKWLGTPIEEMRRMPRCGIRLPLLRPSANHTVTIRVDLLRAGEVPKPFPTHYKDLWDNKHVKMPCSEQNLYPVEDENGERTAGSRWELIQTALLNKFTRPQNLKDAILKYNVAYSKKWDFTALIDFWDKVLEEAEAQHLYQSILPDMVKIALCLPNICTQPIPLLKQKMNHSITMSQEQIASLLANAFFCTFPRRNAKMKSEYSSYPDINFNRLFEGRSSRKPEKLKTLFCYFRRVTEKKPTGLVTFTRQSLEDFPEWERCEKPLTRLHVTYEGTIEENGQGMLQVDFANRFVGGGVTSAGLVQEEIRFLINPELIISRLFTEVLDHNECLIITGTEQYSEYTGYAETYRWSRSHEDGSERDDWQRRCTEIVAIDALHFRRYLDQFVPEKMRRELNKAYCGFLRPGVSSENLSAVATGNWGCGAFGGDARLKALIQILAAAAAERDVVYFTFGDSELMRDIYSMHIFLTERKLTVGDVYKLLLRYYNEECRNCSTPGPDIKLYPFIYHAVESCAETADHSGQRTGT
How it was run: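 Full-length human PARG ([…]) incubated with ribosylated PARP substrate (4.5 nM) for 10 min at room temperature in Tris pH 7.4 buffer with EDTA, EGTA, DTT, KCl. Detection by TR-FRET using anti-6HIS XL665 (14 nM final) and streptavidin europium cryptate (0.75 nM final) after 60 min; Em665/Em620 ratio converted to percent inhibition.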

PARG in HeLa cell line = PARG in HeLa cell line (Homo sapiens (Human), UniProt Q86W56); assay: PARG cell assay (nuclear PAR chains after MMS, immunofluorescence); assay type: cell-based; conditions: HeLa cells, MMS 50 μg/mL; read-out: PARG Cell IC50 Geomean
Sequence of PARG in HeLa cell line (Q86W56 whole entry): as above
How it was run: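 HeLa cells pre-dosed 1 h with compound (10-point dose response), then MMS 50 μg/mL for a further hour at 37 °C. Fixed cells immunostained with anti-PAR antibody plus Alexa Fluor 488 secondary and Hoechst. High-content imaging quantified nuclear PAR fluorescence intensity; inhibition maintains PAR chains.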

Sequence of Human Full Length ARH3 (Q9NX46 whole entry): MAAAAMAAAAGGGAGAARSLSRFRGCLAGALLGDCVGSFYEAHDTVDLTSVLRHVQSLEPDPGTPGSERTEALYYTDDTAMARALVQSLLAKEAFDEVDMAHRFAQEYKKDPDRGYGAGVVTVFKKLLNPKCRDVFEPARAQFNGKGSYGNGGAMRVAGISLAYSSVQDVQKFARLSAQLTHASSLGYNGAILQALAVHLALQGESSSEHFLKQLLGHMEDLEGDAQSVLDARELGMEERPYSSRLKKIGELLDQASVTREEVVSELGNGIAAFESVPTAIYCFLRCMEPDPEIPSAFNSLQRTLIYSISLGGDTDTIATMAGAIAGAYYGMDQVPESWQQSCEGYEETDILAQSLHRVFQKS

IC50 (Human Full Length ARH3) [nM] | IC50 [1] [nM] | EC50 (Human Full Length PARG) [nM] | IC50 (PARG in HeLa cell line) [nM] | Compound
> 150000 | > 150000 | 4280 |  | CC1(NS(=O)(=O)c2ccc3c(c2)N(C(=O)CN2CCOC2=O)CC3)CC1 [Example 14, N-(1-Methylcyclopropyl)-1-[2-(2-oxooxazolidin-3-yl)acetyl]indoline-6-sulfonamide]
> 100000 | > 150000 | 636 | 107 | Cc1nnc(-n2c(=O)n(Cc3ccc(F)cc3)c3ccc(S(=O)(=O)NC4(C)CC4)cc32)s1 [Example 73]
> 100000 | > 150000 | 652 |  | Cn1c(=O)n(-c2nnc(C(F)F)s2)c2cc(S(=O)(=O)NC3(C)CC3)ccc21 [Example 79]
> 100000 | > 150000 | 155 | 193 | Cc1nnc(-n2c(=O)n(CC3CC3)c3ccc(S(=O)(=O)NC4(C)CC4)cc32)s1 [Example 82]
> 100000 | > 150000 | 151 | 127 | Cc1ncc(Cn2c(=O)n(-c3nnc(C)s3)c3cc(S(=O)(=O)NC4(C)CC4)ccc32)s1 [Example 83]
76700 | > 150000 | 68 | 109 | Cc1nnc(-n2c(=O)n(Cc3sc(C)nc3C)c3ccc(S(=O)(=O)NC4(C)CC4)cc32)s1 [Example 87]
> 100000 | > 150000 | 53 | 38 | Cc1nc(C)c(Cn2c(=O)n(-c3nnc(C(F)F)s3)c3cc(S(=O)(=O)NC4(C)CC4)ccc32)s1 [Example 88]
> 100000 | > 150000 | 40 | 63 | Cc1nc(C)c(Cn2c(=O)n(-c3ncns3)c3cc(S(=O)(=O)NC4(C)CC4)ccc32)s1 [Example 90]
> 150000 | > 150000 | 671 |  | Cc1cc(Cc2nc3ccc(S(=O)(=O)NC4(C)CC4)cc3n2-c2nnc(C)s2)on1 [Example 118]
> 150000 | > 150000 | 1030 |  | Cc1nnc(-n2cnc3ccc(S(=O)(=O)NC4(C)CC4)cc32)s1 [Example 119]
> 16700 | > 150000 | 371 | 251 | Cc1nnc(-n2cc(Cc3sc(C)nc3C)c3ccc(S(=O)(=O)NC4(C)CC4)cc32)s1 [Example 129, 3-[(2,4-Dimethylthiazol-5-yl)methyl]-N-(1-methylcyclopropyl)-1-(5-methyl-1,3,4-thiadiazol-2-yl)indole-6-sulfonamide]
> 150000 | > 150000 | 134 | 46.6 | CC1(NS(=O)(=O)c2ccc3c(C(=O)C4CC4)cn(-c4nnc(C(F)F)s4)c3c2)CC1 [Example 145, 3-(Cyclopropanecarbonyl)-1-[5-(difluoromethyl)-1,3,4-thiadiazol-2-yl]-N-(1-methylcyclopropyl)indole-6-sulfonamide]
> 16700 | > 150000 | 1190 |  | Cc1nnc(-n2nc(Cc3ccc(F)cc3)c3ccc(S(=O)(=O)NC4(C)CC4)cc32)s1 [Example 146, 3-[(4-Fluorophenyl)methyl]-N-(1-methylcyclopropyl)-1-(5-methyl-1,3,4-thiadiazol-2-yl)indazole-6-sulfonamide]
> 50000 | > 150000 | 91 | 41 | Cn1c(=O)n(-c2nnc(C(F)F)s2)c2cc(S(=O)(=O)NC3(CF)CC3)c(F)cc21 [Example 174, 3-[5-(difluoromethyl)-1,3,4-thiadiazol-2-yl]-6-fluoro-N-[1-(fluoromethyl)cyclopropyl]-1-methyl-2-oxo-benzimidazole-5-sulfonamide]
> 150000 |  | 112 | 126 | CCn1c(=O)n(-c2nnc(C(F)F)o2)c2cc(S(=O)(=O)NC3(CF)CC3)c(F)cc21 [Example 200, 3-[5-(Difluoromethyl)-1,3,4-oxadiazol-2-yl]-1-ethyl-6-fluoro-N-[1-(fluoromethyl)cyclopropyl]-2-oxo-benzimidazole-5-sulfonamide]
 |  | 349 | 224 | Cn1c(=O)n(-c2nnc(C(F)F)o2)c2cc(S(=O)(=O)NC3(CF)CC3)c(F)cc21 [Example 210, 3-[5-(Difluoromethyl)-1,3,4-oxadiazol-2-yl]-6-fluoro-N-[1-(fluoromethyl)cyclopropyl]-1-methyl-2-oxo-benzimidazole-5-sulfonamide]
> 150000 |  | 401 | 135 | CC1(NS(=O)(=O)c2cc3c(cc2F)n(CCF)c(=O)n3-c2nnc(C(F)F)o2)CC1 [Example 211, 3-[5-(Difluoromethyl)-1,3,4-oxadiazol-2-yl]-6-fluoro-1-(2-fluoroethyl)-N-(1-methylcyclopropyl)-2-oxo-benzimidazole-5-sulfonamide]
> 150000 |  | 129 | 110 | O=c1n(CCF)c2cc(F)c(S(=O)(=O)NC3(CF)CC3)cc2n1-c1nnc(C(F)F)o1 [Example 212, 3-[5-(Difluoromethyl)-1,3,4-oxadiazol-2-yl]-6-fluoro-1-(2-fluoroethyl)-N-[1-(fluoromethyl)cyclopropyl]-2-oxo-benzimidazole-5-sulfonamide]
> 150000 |  | 29 | 16 | C#CCn1c(=O)n(-c2nnc(C(F)F)s2)c2cc(S(=O)(=O)NC3(CF)CC3)c(F)cc21 [Example 213, 3-[5-(Difluoromethyl)-1,3,4-thiadiazol-2-yl]-6-fluoro-N-[1-(fluoromethyl)cyclopropyl]-2-oxo-1-prop-2-ynyl-benzimidazole-5-sulfonamide]
 |  | 165 | 1520 | NC(=O)Cn1c(=O)n(-c2nnc(C(F)F)s2)c2cc(S(=O)(=O)NC3(CF)CC3)c(F)cc21 [Example 214, 2-[3-[5-(Difluoromethyl)-1,3,4-thiadiazol-2-yl]-6-fluoro-5-[[1-(fluoromethyl)cyclopropyl]sulfamoyl]-2-oxo-benzimidazol-1-yl]acetamide]
 |  | 170 | 86 | N#CCn1c(=O)n(-c2nnc(C(F)F)s2)c2cc(S(=O)(=O)NC3(CF)CC3)c(F)cc21 [Example 215, 1-(Cyanomethyl)-3-[5-(difluoromethyl)-1,3,4-thiadiazol-2-yl]-6-fluoro-N-[1-(fluoromethyl)cyclopropyl]-2-oxo-benzimidazole-5-sulfonamide]
> 150000 |  | 51 | 33 | O=c1n(CCF)c2cc(F)c(S(=O)(=O)NC3(CF)CC3)cc2n1-c1nnc(C(F)F)s1 [Example 216, 3-[5-(Difluoromethyl)-1,3,4-thiadiazol-2-yl]-6-fluoro-1-(2-fluoroethyl)-N-[1-(fluoromethyl)cyclopropyl]-2-oxo-benzimidazole-5-sulfonamide]
 |  | 156 | 36 | CC1(NS(=O)(=O)c2cc3c(cc2F)n(CCF)c(=O)n3-c2nnc(C(F)F)s2)CC1 [Example 217, 3-[5-(Difluoromethyl)-1,3,4-thiadiazol-2-yl]-6-fluoro-1-(2-fluoroethyl)-N-(1-methylcyclopropyl)-2-oxo-benzimidazole-5-sulfonamide]
 |  | 15800 | 2810 | CCOC(=O)c1oc2ccc(S(=O)(=O)NC3(C)CC3)cc2c1C [Example 218, Ethyl 3-methyl-5-[(1-methylcyclopropyl)sulfamoyl]benzofuran-2-carboxylate]
